# Results taken from patent US20120064180A1, “USE OF NO AND NO DONORS FOR TERMINATING DORMANCY IN INVERTEBRATES” (UNIVERSITEIT GENT, priority 2009, published 2012).
# Counter-ions that a name gives are not always drawn.
# What was measured:
# Assay type in all cases: in vivo
# [1] = system: eggs with diapaused embryos of Bombyx mori; assay: Termination of embryonic diapause in eggs dipped in NO donor or HCl; conditions: SpermineNONOate 1 mM 30 min dip; 20% HCl 5 min 48° C.
# Method: All experiments were carried out on silkmoth strain Bombyx mori J106 (Lepidoptera: Bombycidae). Larvae were maintained on an artificial diet (Yakuruto Co.) under standard conditions of 25° C., 65% relevant humidity and 16 h light ([…] et al., 2003). Egg batches were collected from a continuous insect colony and used for the experiments. […] The latter treatment is the normally used procedure to break diapause in eggs with diapaused embryos for maintenance of the insect colony of B. mori ([…] et al., 2003). In a water-control, eggs with diapaused embryos were dipped in distilled water only, and in a blank-control, eggs with diapaused were not treated. […] The numbers of eggs with diapaused embryos per treatment (n) are given with the results.
# [2] = system: Bolshoye Yarovoye Artemia cysts (ARC BY 1706); assay: Post-diapause development of Bolshoye Yarovoye strain encysted Artemia embryos with NO donors; conditions: for hatching after 24 hours: 40 and 60 μM, overcome by 48 hr; for concentration at which NO donor was most effective on cyst development: Bolshoye Yarovoye cysts, FIG. 2A-F
# Method: (§1) Encysted embryos (cysts) from a parthenogenetic strain of Artemia obtained in winter 2005-2006 in Bolshoye Yarovoye (Altay Region: 52° 51′64″ N-78° 37′32″ E), Russia (Artemia Reference Center (ARC) code number BY 1706), were stored in the dark at 4° C. in dry sealed bags. For the experiment, the cysts were grown at 26-28° C. with constant illumination in 25 ml of sea water under varying experimental conditions as detailed below.
# To quantify larval (nauplii) emergence and hatching (FIG. 1) which served as measures of cyst development, 6 samples of 250 μl from each 50 ml tube were mixed individually with 250 μl of sea water and 2 drops of Lugol's solution (Van Stappen, G, 1996) prior to counting nauplii (N) and umbrella (U) with the aid of a dissecting microscope. […] The extent of development was determined as the percent of developed cysts which was calculated as either the number of hatched larvae, or the number of hatched and emerged larvae, obtained from 100 cysts, the latter represented by the sum of hatched nauplii (larvae), emerged larvae and undeveloped cysts containing embryos.
# (§2) The hatching percentage (H %) was calculated according to: […]
# (§3) The hatching percentage plus (H^+%) was calculated according to: […]
# The percent of developed cysts was calculated as described above.
# [3] = system: Vinh Chau Artemia cysts (ARC VC 1742); assay: Post-diapause development of Vinh Chau strain encysted Artemia embryos with NO donor
# Method: Dry and processed embryos (cysts) from a strain of Artemia obtained in 2009 in the Soc Trang Province in the Mekong Delta (09° 19′48″ N-105° 58′11″ E) (Artemia Reference Center (ARC) code number VC 1742), were stored in the dark at 4° C. in tin cans, that were not resealed after the first opening. For the experiment, the cysts were grown at 26-28° C. with constant illumination in 25 ml of sea water under varying experimental conditions as detailed below.
# (§4) To quantify nauplii (larvae) emergence and hatching (FIG. 1) which served as measures of cyst development, 6 samples of 250 μl were taken from each 50 ml tube after 10, 12, 14, 16, 18, 20, 22 and 24 h post incubation. Subsequently the obtained samples were mixed individually with 250 μl of sea water and 2 drops of Lugol's solution (Van Stappen, G, 1996) prior to counting nauplii (N) and umbrella (U) with the aid of a stereomicroscope.
# as §2, §3
# [4] = system: Maloye Yarovoye Artemia cysts (ARC MY 1732); assay: Post-diapause development of Maloye Yarovoye strain encysted Artemia embryos with NO donor
# Method: as §1, with “2008” for “winter 2005-2006”, “Maloye” for “Bolshoye”, “53° 04′00″ N-79° 10′00″” for “52° 51′64″ N-78° 37′32″”, “MY 1732),” for “BY 1706),”
# as §4, with “24” for “10, 12, 14, 16, 18, 20, 22”, “48 h.” for “24 h post incubation.”
# as §2, §3
# [5] = system: resting eggs of Brachionus; assay: Brachionus resting egg hatching
# Method: Resting eggs of Brachionus were suspended in 20 ml seawater (25 g/l), supplemented with different concentrations of Sin-1 Chloride (1-60 μM) and put in a falcon tube. These tubes were put on a rotor at 28° C. under constant illumination. The effect on the hatching rate was measured after 48 hr and 72 hr of incubation, by counting emerged rotifers in function of the amount of NO donor added.
# [6] = system: eggs with diapaused embryos of Bombyx mori; assay: Termination of embryonic diapause in eggs by NO gas; conditions: 5 days after treatment
# Method: All experiments were carried out on silkmoth strain Bombyx mori J106 (Lepidoptera: Bombycidae). Larvae were maintained on an artificial diet (Yakuruto co.) under standard conditions of 25° C., 65% relative humidity and 16 h light (Tazima, Y., 1978; Swevers et al., 2003). Egg batches were collected from a continuous insect colony and used for the experiments.
# In a first series, a batch of 70 eggs with diapaused embryos of B. mori were submerged for 5 minutes in 20% HCl (in distilled water) at 48° C., and then the eggs were washed with distilled water and dried to the air. […] The latter treatment is the normally used procedure to break diapause in eggs with diapaused embryos for maintenance of the insect colony of B. mori (Tazima, Y., 1978; Swevers et al., 2003). In a water-control, a batch of 70 eggs with diapaused embryos was submerged in distilled water for 5 minutes at 45° C., and in a blank-control, the same procedure was followed, but without addition of water.
# In parallel, 4 batches of 70 eggs each, were put in Pyrex glass bottles of 100 mL, which were sealed gastight by means of a rubber stop and a screw cap. Then the air was removed from these bottles by inserting a needle (in the rubber stop) connected to a vacuum pump. Using 50 ppmv (Parts Per Million by Volume) NO gas (with N2 as carrier gas, purchased from Air Liquide) dilution series were prepared (with air as dilutor) to obtain final NO concentrations of 20, 200, 2000 and 20000 ppbv, in these bottles. Verification of the NO concentrations was done by sampling from a parallel bottle that received the same gas mixture as the treatment bottle and NO content was determined by using a chemiluminescence detector (CLD 77 Amsp, Eco Physics). 30 minutes after insertion of the gas mixtures, the rubber stops were removed. These treatments were all performed at room temperature.
# Development of the neonate larvae (=hatching of first instar larvae from eggs) was scored at daily intervals. The numbers of eggs with diapaused embryos per treatment (n) are given with the results.
# [7] = system: diapaused adults of Leptinotarsa decemlineata; assay: Termination of adult diapause by NO gas
# Method: All experiments were carried out on the Colorado potato beetle (potato beetle), Leptinotarsa decemlineata (Say) (Coleoptera: Chrysomelidae). Diapaused adult beetles were obtained by rearing larvae and pupae at 8 h light, 16 h dark, 25±2° C. and 70% relative humidity (Yi, et al., 2000). All life stages were fed potato (Solanum tuberosum L. ‘Bintje’) plants, that were refreshed daily. 15 days after adult emergence, the diapausing adults were placed in individual aluminum foil, 2.5-cm diameter ‘beakers’, containing fresh soil (Universal potting soil, Type 1, M. Snebbout n.v., Kaprijke, Belgium), and were stored at 4° C. in darkness.
# Under red light, beetles were collected and put in Pyrex glass bottles of 100 mL, containing a layer of fresh soil. These bottles were wrapped in a double layer of aluminum foil to ensure complete darkness and sealed gastight by means of a rubber stop and a screw cap. The air was then removed by inserting a needle (in the rubber stop) connected to a vacuum pump. Using 50 ppmv NO gas (with N2 as carrier gas, purchased from Air Liquide), dilution series were prepared (with air as dilutor), and the desired final NO concentrations were injected in each bottle. A blank control, received ambient air only. Verification of the NO concentrations was done by sampling from a parallel bottle that received the same gas mixture as the treatment bottle. NO content was determined with a chemiluminescence detector (CLD 77 Amsp, Eco Physics). The treatments were all done at 4° C. in the dark and 30 minutes after insertion of the gas mixtures, the rubber stops were removed.
# After the treatments, the beetles were collected in plastic containers (dimensions: 10×21×5 cm), containing fresh soil and potato leaves and kept at 25±3° C., 65% relative humidity and 8 h light (Exp. 1 and 2). In the last experiment (Exp 3), beetles were left at 4° C. in the dark for 6 hours before transfer to a 12° C. incubator, in the dark. The beetles that emerged were collected every day and the beetles' emergence per treatment (% of total) are given with the results.
compound,measurement,setting,value
Cl [20% HCl],Number of developed neonates at day 6,[1],10
same,Number of developed neonates at day 7,[1],36
same,Number of developed neonates at day 8,[1],12
same,Number of developed neonates at day 14,[1],0
same,Number of undeveloped eggs at day 14,[1],14
same,eggs developed into neonate larvae at 6-8 days after treatment (total),[1],81%
same,percentage of developed neonates at day 14,[1],(0%)
"CC1(C)N([O])C(c2ccccc2)=[N+]([O-])C1(C)C [PTIO, 2-phenyl-4,4,5,5,-tetramethylimidazoline-1-oxyl 3-oxide]",effect of NO scavenger on cyst development promoted by NO donors,"[2]; 300 μM PTIO with 0.5 μM Papa NONOate, 6.0 μM Spermine NONOate or 6.0 μM Sin-1 chloride, 48 hr",inhibited cyst development
"CCCN(CCCN)N(O)N=O [Papa NONOate, 3-(2-hydroxy-2-nitroso-1-propylhydrazino)-1-propanamine]",hatching after 24 hours,[2],inhibited hatching almost completely
same,concentration at which NO donor was most effective on cyst development,[2],0.63 µM
same,hatching percentage (H %) versus untreated control,"[3]; 0.5 μM, 16 and 18 h post-treatment",significantly increased
same,hatching percentage (H %) versus non-treated controls,"[3]; 1 and 4 μM, 16 hours and more",comparable to the non-treated controls
same,optimal dose,[3]; Vinh Chau cysts,0.5 µM
same,hatching percentage plus (H+%) versus non-treated controls,"[3]; all treatments (0.5, 1, 4 μM) at 12, 18 and 20 hours",significantly increase
same,increase in number of nauplii compared to the control,"[4]; 4 μM, 48 h",~5 fold
same,hatching percentage (H %),"[4]; 4 μM, 48 h, control around 10%",47%
same,optimal dose for inducing hatching,[4]; Maloye Yarovoye diapausing cysts,4 µM
"[NH-]c1c[n+](N2CCOCC2)no1 [Sin-1 Chloride, 3-morpholine syndnonimine]",hatching after 24 hours,[2],"less dramatic, but obvious"
same,concentration at which NO donor was most effective on cyst development,[2],4.0 µM
same,Percentage hatching of resting eggs,"[5]; 1 μM, 48 hrs",12.34% (3.62)
same,Percentage hatching of resting eggs,"[5]; 1 μM, 72 hrs",33.11% (2.66)
same,Percentage hatching of resting eggs,"[5]; 6 μM, 48 hrs",18.93% (1.25)
same,Percentage hatching of resting eggs,"[5]; 6 μM, 72 hrs",33.71% (0.66)
same,Percentage hatching of resting eggs,"[5]; 10 μM, 72 hrs",37.17% (2.88)
same,Percentage hatching of resting eggs,"[5]; 20 μM, 48 hrs",17.99% (3.18)
same,Percentage hatching of resting eggs,"[5]; 20 μM, 72 hrs",32.38% (2.63)
same,Percentage hatching of resting eggs,"[5]; 60 μM, 48 hrs",14.98% (3.52)
same,Percentage hatching of resting eggs,"[5]; 60 μM, 72 hrs",27.57% (1.00)
nitric oxide [NO gas],eggs emerged,"[6]; 0.02-20 ppmv NO, controls 0%",27.1-37.1%
same,Percentage of developing eggs,[6]; 0.02 ppmv NO,37.1%
same,Percentage of developing eggs,[6]; 0.20 ppmv NO,35.7%
same,Percentage of developing eggs,[6]; 2.00 ppmv NO,31.4%
same,Percentage of developing eggs,[6]; 20.0 ppmv NO,27.1%
same,percentage of emerging adult beetles,"[7]; 0.300 ppmv, after 4 days, in diapause for 27 days, blank control 14.3%",42.9%
same,percentage of emerging adult beetles,"[7]; 2.6 ppmv, 3 days after treatment, in diapause for 10 days",20%
same,percentage of emerging adult beetles,"[7]; 2.6 ppmv, day 6, in diapause for 10 days",40%
same,percentage of emerging adult beetles,"[7]; 6.1 ppmv, 3 days after treatment, in diapause for 10 days",20%
same,percentage of emerging adult beetles,"[7]; 6.1 ppmv, day 6, in diapause for 10 days",20%
same,percentage of emerging adult beetles,"[7]; 67.4 ppmv, after 4 days, in diapause for 10 days",20%
